Source: patent US12287338B2, “Method and compositions for predicting anti-cancer efficacy of compounds targeting apoptosis pathway” (Ascentage Pharma (Suzhou) Co., Ltd., priority 2020, dated 2025)

Legend:
Assay type in all cases: cell-based
[1] = test system: Bcl-xL:BIM and Bcl-2:BIM complex; test: Bcl-2:BIM and Bcl-xL:BIM complex analysis by MSD advanced ELISA in RS4; 11 cells; conditions: 11 cell line, 24 hours, 0.025, 0.04 and 0.06 uM
Method: (§1) A diffuse large B cell lymphoma line, Toledo, and an acute lymphocytic leukemia line, RS4; 11, were chosen for the study. Cells were treated for 24 hours with Compound B4 or ABT-737 at indicated concentrations (0.025 uM, 0.04 uM and 0.06 uM, respectively) and harvested for complex analysis. Both Bcl-2:BIM and Bcl-xL:BIM complex were analyzed using MSD advanced ELISA methods.

[2] = target: T1, Bcl-xL:BIM and Bcl-2:BIM complex (Homo sapiens, UniProt Q07817); test: Bcl-2:BIM and Bcl-xL:BIM complex analysis by MSD advanced ELISA in Toledo cells; conditions: Toledo and RS4; 11 cell lines (FIGS. 4A, 4B), 24 hours
T1 construct: A diffuse large B cell lymphoma line, Toledo, and an acute lymphocytic leukemia line, RS4; endogenous in cells; host or cells: Toledo
T1 sequence (Q07817 whole entry, one chain of several): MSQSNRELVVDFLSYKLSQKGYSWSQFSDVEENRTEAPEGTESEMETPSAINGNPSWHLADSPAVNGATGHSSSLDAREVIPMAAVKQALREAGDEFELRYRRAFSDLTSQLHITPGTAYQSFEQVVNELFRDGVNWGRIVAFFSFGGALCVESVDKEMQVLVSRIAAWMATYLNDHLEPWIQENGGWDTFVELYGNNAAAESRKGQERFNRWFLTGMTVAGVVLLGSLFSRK
Method: as §1

[3] = test system: Bcl-xL:BIM and Bcl-2:BIM complex; test: as above; conditions: Toledo cell line, 24 hours, 0.025, 0.04 and 0.06 uM
Method: as §1

Q: For `Cc1c(S(C)(=O)=O)c(-c2cc(F)cc(N3CCN(c4ccc(NS(=O)(=O)c5ccc(N[C@H](CCN6CCC(C(=O)O)CC6)CSc6ccccc6)c(S(=O)(=O)C(F)(F)F)c5)cc4)CC3)c2)c(-c2ccc(Cl)cc2)n1C(C)C` [Compound B4, (R)-1-(3-(4-(N-(4-(4-(3-(2-(4-chlorophenyl)-1-isopropyl-5-methyl-4-(methylsulfonyl)-1H-pyrrol-3-yl)-5-fluorophenyl)piperazin-1-yl)phenyl)sulfamoyl)-2-(trifluoromethylsulfonyl)phenylamino)-4-(phenylthio)butyl)piperidine-4-carboxylic acid], which “disruption of Bcl-xL:BIM vs Bcl-2:BIM complex” value [1] is on record?
A: more potently disrupted Bcl-xL:BIM than Bcl-2:BIM complex

Q: What about the “disruption of Bcl-xL:BIM complex compared with ABT-737” value [2] of the same compound?
A: disrupted Bcl-xL:BIM complex more intensely than ABT-737

Q: And the “disruption of Bcl-xL:BIM vs Bcl-2:BIM complex” value [3]?
A: more potently disrupted Bcl-xL:BIM than Bcl-2:BIM complex
